Measurements taken from patent publication EP4656630A1, “NOVEL COMPOUND AS LYSYL-TRNA SYNTHETASE 1 INHIBITOR, AND USE THEREOF” (Zymedi Co., Ltd., priority 2023, dated 2024).

Tests used:
[1] = Microsomal metabolic stability, rat; format: in vitro ADME
Description: (§1) Metabolic stability (MS) evaluation was conducted for the selected compounds by measuring in vitro stability in two species, rat and human, according to the microsomal stability measurement method. As a result, it was identified that MS varied depending on the transformation of parts A, B, and C.

[2] = Microsomal metabolic stability, human; format: in vitro ADME
Description: as §1

KARS1 and 37LR = target: T1, KARS1 and 37LR (Homo sapiens, UniProt Q15046); assay: Cell-free ELISA of KARS1 and 37LR (laminin receptor) binding; conditions: 10 µM compound, 1 hour, plate coated with KARS1 (1-207aa), LRF
T1 construct: KARS1 (1-207aa)
Description: Next, based on the mechanism of action, a cell-free ELISA analysis was conducted to select compounds with high inhibitory activity on the binding of KARS1 and LR (laminin receptor).

[3] = Rat pharmacokinetics (po and iv) and bioavailability; format: in vivo; conditions: for Cmax / Tmax / half-life / AUC: in vivo
Description: For this purpose, formulations suitable for peroral administration (po) and intravenous injection (iv) for each compound were first selected to ensure stable PK progression.
The formulation was selected under the condition of maintaining a clear solution for more than 1 hour at 10 and 30 mpk doses based on po, and the iv formulation was modified when iv use was not possible based on po (Table 8).
To confirm the oral administration potential of the selected compounds, 10 mpk rat po PK was conducted. The PK profile and key indicators after administering 10 mpk to five compounds, C0001, 25, 41, 42, and 43, are shown in Figure 3 and Table 9.
Based on the previous 10 mpk po rat PK results, 30 mpk po rat PK was conducted for four compounds, C0001, 25, 41, and 43, to confirm changes in the blood PK profile of the substances with increasing doses.
For these compounds, 2 mpk iv rat PK was conducted to calculate bioavailability (BA) (Table 11).

Raw264.7 cells = assay: KARS1-induced trans-migration assay; format: cell-based, mouse; conditions: Mus musculus, RAW264.7; for inhibition at 1 µM: 1 µM compound, read-out: KARS1-induced Raw264.7 cell migration (% inhibition, 1uM)
Description: C0001 inhibits the binding of KARS1 and 67LR, thereby blocking the migration of monocytes/macrophages and suppressing inflammation. Accordingly, a trans-migration assay using mouse macrophages (Raw264.7) was conducted to preliminarily screen drugs that inhibit the migration of monocytes/macrophages.
Based on this, when KARS1 protein was directly treated externally instead of LN, the trans-migration of Raw264.7 was induced, and the cell migration inhibitory effect of the KARS1 inhibitor C0001 was confirmed. It was verified that C0001, which specifically binds to KARS1, can inhibit cell migration by binding to extracellular KARS1, in addition to the mechanism of inhibiting cell membrane migration of KARS1 induced by laminin and its binding to 67LR, thereby enabling this analysis to be used as a direct method for evaluating in vitro activity against KARS1.
Next, preliminary candidate substances with high inhibitory activity at 1 µM were treated at concentrations of 0.1~4 µM for analysis.

Raw 264.7 cells = assay: LN (Laminin 421)-induced immune cell migration, Transwell; format: cell-based; conditions: Mus musculus, RAW264.7; for inhibition at 3 µM: 3 µM compound, LN (Laminin 421 1 µg/ml), 24 hours, % inhibition compared to control group, read-out: Migration inhibitor % (3uM)
Description: Cell migration was assessed based on the method described in the prior literature (Park, S. G. et al. Human lysyl-tRNA synthetase is secreted to trigger proinflammatory response. Proceedings of the National Academy of Sciences, 2005, 102.18: 6356-6361.). The specific experimental method is as follows. A Transwell (Corning#3421-5µm pore) was coated with gelatin (0.5mg/ml), and then Raw 264.7 cells (1 x 10^5 cells/well) were seeded in the upper chamber. Serum-free medium (Serum Free DMEM, 500 µl) containing LN (Laminin 421 1 µg/ml) was added to the lower chamber. Each compound was treated at a concentration of 3µM in the upper chamber. After 24 hours, the cells were fixed with 70% methanol for 30 minutes and stained with 50% hematoxylin for 30 minutes. Non-migrating cells on the upper side of the membrane were removed with a cotton swab, and the membrane was mounted on a slide. Migrating cells on the lower side of the membrane were observed under a high-power microscope, and the number of cells was measured from the obtained images and expressed as the inhibition rate (% inhibition) compared to the control group.

[4] = S9 metabolic stability, human; format: in vitro ADME
Description: (§2) Among these, secondary MS measurements were conducted for Compound 25 (C0047), Compound 43 (C0216), and C0001 using the S9 method. This test measured the remaining % at 30, 45, and 60 minutes for four species: mouse, rat, dog, and human.

[5] = S9 metabolic stability, rat; format: in vitro ADME
Description: as §2

[6] = S9 metabolic stability, dog; format: in vitro ADME
Description: as §2

[7] = S9 metabolic stability, mouse; format: in vitro ADME
Description: as §2

Organ distribution = format: in vivo; design: Organ distribution Plasma (ng/ml): concentration or dose not given beside the values

T1 sequence (Q15046 1-207): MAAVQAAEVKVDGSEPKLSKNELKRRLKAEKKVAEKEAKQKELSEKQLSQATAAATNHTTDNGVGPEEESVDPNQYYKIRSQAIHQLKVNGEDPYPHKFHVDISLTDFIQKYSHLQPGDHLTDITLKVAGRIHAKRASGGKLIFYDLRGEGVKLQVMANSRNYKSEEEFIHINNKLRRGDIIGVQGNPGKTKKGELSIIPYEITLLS

COc1ccc(CCN(c2nc3cccc(F)c3s2)C(C)c2ccc(N3CC[C@H](C(=O)O)C3)cc2)cc1 (stereo partly drawn) [Compound 42, (3S)-1-(4-(1-((7-fluorobenzo[d]thiazol-2-yl)(4-methoxyphenethyl)-amino)ethyl)phenyl)pyrrolidine-3-carboxylic acid]
Metabolic stability (% remaining at 30 min) Rat [1]: 43%
Metabolic stability (% remaining at 30 min) Human [2]: 76%
inhibition at 10 µM (KARS1 and 37LR): 65.6%
Cmax ([3]; 10 mg/kg, po, 10 mpk): 240 ng/mL
Tmax ([3]; 10 mg/kg, po, 10 mpk): 0.67 h
half-life ([3]; 10 mg/kg, po, 10 mpk): 1.32 h
AUC ([3]; po, 10 mg/kg, 10 mpk): 1420 ng·h/mL
inhibition at 1 µM (Raw264.7 cells): 85.8%
inhibition at 3 µM (Raw 264.7 cells): 63.1%

COc1ccc(CCN(Cc2ccc(N3CC[C@H](C(=O)O)C3)cc2)c2nc3c(F)c(F)cc(F)c3s2)cc1 [Compound 43, (S)-1-(4-(((4-methoxyphenethyl)(4,5,7-trifluorobenzo[d]thiazol-2-yl)amino)methyl)phenyl)pyrrolidine-3-carboxylic acid]
Metabolic stability (% remaining at each time) Human (min) 30 ([4]; 30 min): 87.3%
Metabolic stability (% remaining at each time) Human (min) 45 ([4]; 45 min): 80.7%
Metabolic stability (% remaining at each time) Human (min) 60 ([4]; 60 min): 92.4%
Metabolic stability (% remaining at each time) Rat (min) 30 ([5]; 30 min): 99.2%
Metabolic stability (% remaining at each time) Rat (min) 45 ([5]; 45 min): 81.6%
Metabolic stability (% remaining at each time) Rat (min) 60 ([5]; 60 min): 88.0%
Metabolic stability (% remaining at 30 min) Rat [1]: 80%
Metabolic stability (% remaining at each time) Dog (min) 30 ([6]; 30 min): 110.9%
Metabolic stability (% remaining at each time) Dog (min) 45 ([6]; 45 min): 117.3%
Metabolic stability (% remaining at each time) Dog (min) 60 ([6]; 60 min): 100.6%
Metabolic stability (% remaining at 30 min) Human [2]: 85%
Metabolic stability (% remaining at each time) Mouse (min) 30 ([7]; 30 min): 79.8%
Metabolic stability (% remaining at each time) Mouse (min) 45 ([7]; 45 min): 77.7%
Metabolic stability (% remaining at each time) Mouse (min) 60 ([7]; 60 min): 73.2%
inhibition at 10 µM (KARS1 and 37LR): 67.1%
Organ distribution (ratio per plasma) Brain (Organ distribution; 0.5 h): 0.09
Organ distribution (ratio per plasma) Brain (Organ distribution; 6.0 h): 0.92
Organ distribution (ratio per plasma) Heart (Organ distribution; 0.5 h): 0.42
Organ distribution (ratio per plasma) Heart (Organ distribution; 6.0 h): 0.35
Organ distribution (ratio per plasma) Kidney (Organ distribution; 0.5 h): 0.61
Organ distribution (ratio per plasma) Kidney (Organ distribution; 6.0 h): 1.89
Organ distribution (ratio per plasma) Liver (Organ distribution; 0.5 h): 1.70
Organ distribution (ratio per plasma) Liver (Organ distribution; 6.0 h): 3.56
Organ distribution (ratio per plasma) Lung (Organ distribution; 0.5 h): 4.30
Organ distribution (ratio per plasma) Lung (Organ distribution; 6.0 h): 0.55
Organ distribution Plasma (ng/ml) (Organ distribution; 0.5 h): 19,420 ng/ml
Organ distribution Plasma (ng/ml) (Organ distribution; 6.0 h): 5,366 ng/ml
Cmax ([3]; 10 mg/kg, po, 10 mpk): 3320 ng/mL
Tmax ([3]; 10 mg/kg, po, 10 mpk): 1.33 h
half-life ([3]; 10 mg/kg, po, 10 mpk): 0.95 h
Cmax ([3]; 30 mg/kg, po, 30 mpk): 12800 ng/mL
Tmax ([3]; 30 mg/kg, po, 30 mpk): 1.67 h
half-life ([3]; 30 mg/kg, po, 30 mpk): 1 h
AUC ([3]; iv, 2 mg/kg, 2 mpk): 2690 ng·h/mL
AUC ([3]; po, 10 mg/kg, 10 mpk): > 5000 ng·h/mL
AUC ([3]; po, 10 mg/kg, 10 mpk (Table 11)): 9710 ng·h/mL
AUC ([3]; po, 30 mg/kg, 30 mpk): 55300 ng·h/mL
AUC ([3]; po, 30 mg/kg, 30 mpk (Table 11)): 55300 ng·h/mL
BA (%) ([3]; po, 10 mpk against iv 2 mpk): 72.2%
AUC (ng*h/ml) ([3]; po, 10 mpk, listed as 43 (C0216), 10 mg/kg): 9,711 ng*h/ml
BA (%) ([3]; po, 30 mpk against iv 2 mpk): 137.0%
AUC value increase at 30 mpk ([3]; po, 30 mpk compared with 10 mpk): 5.7 times
inhibition at 1 µM (Raw264.7 cells): 98.4%
EC50 (Raw264.7 cells; KARS1-induced cell migration, 0.1~4 µM): 640 nM
inhibition at 3 µM (Raw 264.7 cells): 31.1%
EC50 (Raw 264.7 cells; LN-induced cell migration, read-out: EC50 for cell migration inhibition induced by LN): 5090 nM
